Test results reported in PubChem BioAssay (NCI).
Where “and” joins values, the source holds several entries; their conditions need not be identical. Equal values may be shown once.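 In this assay, cells in 96-well plates receive the compound at five concentrations for 48 hours. Endpoints are linearly interpolated between the surrounding concentrations. Here, GI50 denotes the concentration required for 50% inhibition of growth. TGI marks complete inhibition of growth.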

What was measured:
Assay in all cases: NCI tumour cell line growth inhibition, 48 h
[1] = system: IGROV1 ovarian
[2] = system: SW-620 colon
[3] = system: OVCAR-5 ovarian
[4] = system: MCF7 breast
[5] = system: SR leukemia
[6] = system: HS 578T breast
[7] = system: OVCAR-3 ovarian
[8] = system: HCC-2998 colon
[9] = system: HOP-92 NSCLC
[10] = system: SK-OV-3 ovarian

Structure (SMILES) | GI50 [1] | TGI [1] | GI50 [2] | TGI [2] | GI50 [3] | TGI [3] | GI50 [4] | TGI [4] | GI50 [5] | TGI [5] | GI50 [6] | TGI [6] | GI50 [7] | TGI [7] | GI50 [8] | TGI [8] | GI50 [9] | TGI [9] | GI50 [10] | TGI [10]
C[C@@H]1C/C=C\C(=O)O[C@H](/C=C/C#C/C=C/C(C)(C)[C@@H](O)c2cccc(O)c2Br)[C@@H](C)/C=C/[C@H](C)C[C@H](OC(N)=O)C1 | 0.0344 µM | 18.5 µM | 0.0348 µM | 15.8 µM | 0.0322 µM | 18.3 µM | 0.0613 µM | 15.5 µM | 0.0273 µM | > 100 µM | 0.4 µM | 32.3 µM | 63.6 nM | 15.7 µM | 0.054 µM | 11.8 µM | 0.0228 µM | 0.0836 µM | 13.3 µM | 27.3 µM
CN(C)CCCN1c2ccccc2Sc2ccc(Cl)cc21 | 11.7 µM and 4.63 µM | 26.7 µM and 18.4 µM | 3.57 µM and 3.69 µM | 13.7 µM and 14.6 µM | 5.2 µM and 11.8 µM | 17.6 µM and 24.8 µM | 3.15 µM and 3.46 µM | 12.6 µM and 13.7 µM | 3.01 µM and 3.94 µM | 11 µM and 20.2 µM | 4.32 µM and 3.77 µM | 24.4 µM and 21 µM | 3830 nM and 6360 nM | 12.6 µM and 18.8 µM | 1.97 µM | 4.14 µM | 1.82 µM | 8.71 µM | 2.76 µM and 3.22 µM | 7.62 µM and 9.3 µM
c1ccc(CC(NCCNC(Cc2ccccc2)c2ccccc2)c2ccccc2)cc1 (stereo unspecified) | 0.605 µM | 2.84 µM | 0.401 µM | 1.38 µM | 1.24 µM | 3.57 µM | 0.311 µM | 1.14 µM | 0.243 µM | 0.587 µM | 1.64 µM | 4.12 µM | 398 nM | 1.46 µM | 0.393 µM | 1.55 µM | 0.369 µM | 1.48 µM | 1.3 µM | 3.93 µM
CN(C)C(=O)SC1=C(c2c(Cl)cccc2Cl)C(=O)c2ccccc21 | 4.78 µM | 11.4 µM | 2.17 µM | 5.01 µM | 15.5 µM | 30.8 µM | 2.51 µM | 7.73 µM | 3.56 µM | 88.9 µM | 20 µM | > 75.5 µM | 1960 nM | 3.8 µM | 15.6 µM | 29.2 µM | 1.96 µM | 8.31 µM | 18.6 µM | 36.5 µM
O=c1[nH]c2cc(Cl)c(Cl)cc2n2cc3ccccc3c12 | 17.4 µM | 31.2 µM | 15.8 µM | 29.2 µM | 17.1 µM | 30.8 µM | 21.4 µM | 39.5 µM | 17.3 µM | 39 µM | 20.1 µM | 53 µM | 18400 nM | 32.4 µM | 0.813 µM | 18.6 µM | 18.4 µM | 34.7 µM | 18 µM | 33.1 µM
CC[C@H](C)[C@H](NC(=O)[C@H]1CCCCN1C)C(=O)N(C)[C@H](C[C@@H](OC(C)=O)c1nc(C(=O)N[C@@H](Cc2ccccc2)C[C@H](C)C(=O)OC)cs1)C(C)C | 0.002 µM and 0.0025 µM | > 25 µM |  | > 25 µM | 0.000583 µM and 0.0025 µM | > 25 µM |  | > 25 µM |  | 9.59 µM | 0.000504 µM and 0.0025 µM | 6.9 µM | 0.0424 nM | 0.0116 µM | 0.00032 µM and 0.0025 µM | > 25 µM | 0.765 µM | > 25 µM | 0.000264 µM and 0.0025 µM | > 25 µM
Cc1n(Cc2ccc3ccccc3c2)c(Cl)c(Cl)[n+]1Cc1ccc2ccccc2c1 | 1.39 µM | 2.81 µM | 1.48 µM | 3.06 µM | 1.65 µM | 3.89 µM | 1.61 µM | 3.37 µM | 1.87 µM | 4.98 µM | 1.54 µM | 3.79 µM | 1440 nM | 2.87 µM | 1.66 µM | 3.14 µM | 1.17 µM | 2.94 µM | 2.52 µM | 9.62 µM
CC[C@@]1(O)C(=O)OCc2c1cc1n(c2=O)Cc2cc3c(N)cccc3nc2-1 |  | 6.26 µM |  | 16.3 µM | 0.0763 µM | 1.1 µM | 0.00482 µM | 4.85 µM | 0.00165 µM |  | 0.0865 µM | > 60.7 µM |  | 1.42 µM | 0.0239 µM | 1.39 µM |  | 1.99 µM |  | 1.68 µM
Cn1cc(CO)c2ccccc21 | 10.9 µM | > 100 µM | 19.1 µM | 91.1 µM | > 100 µM | > 100 µM | 26.9 µM | > 100 µM | 17.9 µM | > 100 µM | 38.5 µM | > 100 µM | 29500 nM | > 100 µM | > 100 µM | > 100 µM | 33.9 µM | > 100 µM | 77.5 µM | > 100 µM
